Test results reported in patent EP2891491A1, “Use of (r)-phenylpiracetam for the treatment of sleep disorders” (Merz Pharma GmbH & Co. KGaA, priority 2014, dated 2015).

Tests used:
[1] = test system: rats; experiment: electroencephalography (EEG) screen in freely moving rats; format: in vivo
Method: EXAMPLE 5: Testing of (R)-phenylpiracetam in an electroencephaloaraphy (EEG) screen - Fig. 4
(R)-Phenylpiracetam was tested at four different concentrations (1 mg/kg, 12.5 mg/kg, 25 mg/kg, and 50 mg/kg) in an EEG screen as described by Dimpfel (Dimpfel, Neuropsychobiology, 58 (2008)178-86).
Eight adult Fisher 344 rats (8 months of age, kept on inverse light-dark cycle, weight about 400 g, provided by Charles River Laboratories, D-97633, Sulzfeld) were used in this experimental series. Animals were implanted with electrodes into the brain and were given two weeks for recovery from surgery. After this the transmitter was plugged in for adaptation and control experiments.
The animals were allowed to acclimatize for at least 4 weeks before the study started. There was automatic control of light cycle, temperature and humidity. Light hours were 18 h in the evening - 6 h in the morning. […] Cages, bedding, and water bottles were changed at regular intervals, i.e. every 2-3 days. Standard diet (Nohrlin H10, Altromin, D-32791 Lage, Germany) was available to the animals ad libitum. The animals had access to domestic quality mains water ad libitum.
Rats were implanted with 4 bipolar concentric steel electrodes within a stereotactic surgical procedure during anaesthesia with ketamine. All four electrodes were placed 3 mm lateral within the left hemisphere. Dorsoventral coordinates were 4, 6, 4.2 and 8 mm and anterior coordinates were 3.7, 9.7, 5.7 and 12.2 mm for frontal cortex, striatum, hippocampus, and reticular formation, respectively (according to the atlas of Paxinos and Watson, 1982). A pre-constructed base plate carrying 4 bipolar stainless steel semi-micro electrodes (neurological electrodes "SNF 100" from Rhodes Medical Instruments, Inc., Summerland, CA 93067, USA) and a 5-pin-plug was fixed to the skull by dental cement interacting with 3 steel screws placed on distance into the bone. The distant recording spot of the electrode was the active electrode whereas the proximal spots of the four electrodes were connected to each other to give a reference. The base plate was carrying a plug to receive later on the transmitter (weight: 5.2 g including battery, 26 mm x 12 mm x 6 mm of size).
EEG signals were recorded from frontal cortex, hippocampus, striatum and reticular formation of freely moving rats from inside a totally copper shielded room. Signals were wirelessly transmitted by a radio-telemetric system (Rhema Labortechnik, Hofheim, Germany, using 40 MHz as carrier frequency) and were amplified and processed as described earlier to give power spectra of 0.25 Hz resolution (Dimpfel et al. 1986; Dimpfel et al. 1988; Dimpfel et al. 1989; Dimpfel, 2003). […]

[2] = just slightly stronger with (R)- than with (S)-phenylpiracetam; cited from earlier work
[3] = brain microdialysis: concentration of (R)-phenylpiracetam in the brain after i.p. application; format: in vivo, rats; conditions: rat
Method: EXAMPLE 3: Assessment of the concentration of (R)-phenylpiracetam in the brain using brain microdialysis - Figs. 2, 14, 15
Naive adult male Sprague-Dawley rats (240-360 g, Janvier, France) were used for the study kept under standard conditions. All experiments were conducted during the light period of the day-night cycle.
Siliconized guide cannula (MAB 6.14.IC) (MAB, Stockhom, Sweden) were implanted unilaterally in pentobarbital anaesthetized animals aiming at the caudatus putamen (CPu; AP: +0.1, LM: ± 2.6, DV: -3.2 mm relative to bregma; -3.3 mm interaural) according to the atlas of Paxinos and Watson (loc. cit.). Rats were given at least 3 days to recover from surgery before starting microdialysis experiments.
Microdialysis experiments were performed in the home cage of the animal. A microdialysis probe (MAB 6.14.4.; 4 mm exposed membrane length, polyethersulfone (PES) membrane; MAB, Stockholm, Sweden) was lowered through the guide cannula into the CPu (ventral position of probe tip with reference to the skull: -7.2 mm) ca. 12 hours before the sampling and left in place for the whole testing period.
The probes were perfused with aCSF at a flow rate of 2 µl/min using a CMA 102 perfusion pump (CMA, Solna, Sweden). The composition of the aCSF was 147 mM Na^+, 2.7 mM K^+, 1.2 mM Ca^2+, 0.85 mM Mg^2+, 0.04 mM ascorbic acid. […]

NC(=O)CN1C[C@@H](c2ccccc2)CC1=O [(R)-phenylpiracetam]
theta, delta, alpha1 and beta2 waves in the reticular formation ([1]; EEG pattern compared with nootropics): no change | alpha2 and beta1 waves ([1]; i.p., 1, 12.5, 25 and 50 mg/kg): dose dependent attenuation | theta power within the frontal cortex ([1]; i.p., highest dosage): increases | Motility ([1]; i.p., video tracking during EEG): increased | locomotor activity in the open-field test [2]: significant increase | free concentration in extracellular fluid in the brain ([3]; 50 mg/kg): 20 µM | free concentration in extracellular fluid in the brain ([3]; 100 mg/kg): 50 µM
